Series [1] is described as follows: hHEP metabolic stability, predicted human hepatic clearance. The series is classed as in vitro ADME. The following applies: well-stirred model, 1 μM. The procedure:
Working stocks of individual test articles were prepared at concentrations of 100 μM by diluting 10 mM stocks prepared in DMSO 100-fold (v:v) into ACN/H2O (50/50, v:v). Human cryopreserved hepatocytes were thawed in a 37° C. water bath in <2 min., suspended in thawing media, and then centrifuged at 100×g for 10 min. Thawing media was aspirated, and pelleted hepatocytes were resuspended into incubation media at 1.5×10^6 cells/mL. Cell viability was determined using an Acridine Orange/Propidium Iodine stain, and hepatocytes were further diluted with incubation media to 0.5×10^6 viable cells/mL. Hepatocyte aliquots of 198 μL were added to wells of a 96-well plate, and test article incubations were initiated by the addition of 2 μL of 100 μM working stocks. Plates were incubated at 37° C. in a 5% CO2 atmosphere at 95% relative humidity on an orbital shaker at 300 rpm. Incubations were performed in duplicate. Following incubation, aliquots of individual reactions were terminated by addition of ACN containing internal standards at 0, 30-, 60-, 90-, 120-, and 240-min. Precipitated protein was pelleted via refrigerated centrifugation. Supernatants were diluted into an equal volume of pure water and mixed well prior to analysis via LC-MS/MS. In vitro intrinsic clearances (CLint) in μL/min/10^6 cells were determined for each incubation from calculated in vitro half-lives determined using a standard log-linear regression approach. In vitro CLint values were scaled up using the following physiological scaling factors: 99×10^6 cells/g human liver and 25.7 g human liver/kg body weight.

Series [2] in a line: Caco-2 bidirectional permeability. The series is classed as in vitro ADME. As to conditions: human; for Papp A→B at 2 h, 5 μM: apical-to-basolateral, read-out: Caco-2 AB; for Papp B→A at 2 h, 5 μM: basolateral-to-apical, read-out: Caco-2 BA; for efflux ratio at 2 h, 5 μM: efflux ratio Papp (B-to-A)/Papp (A-to-B). The protocol:
Following a 1-hr. equilibration period in cell culture medium maintained at 37° C. in an incubator containing a 5% CO2 atmosphere at 95% relative humidity, Corning 96-well HTS Transwell® permeable support plates were seeded with 34,300 Caco-2 cells (ATCC) per well. Following seeding, plates were cultured for 14-18 days with cell culture medium replacement every other day beginning no later than 24 hr. after plating. Monolayer barrier integrity was monitored during the culture period using transepithelial electrical resistance (TEER) measurements taken with a Millicell Epithelial Volt-Ohm system. Caco-2 monolayers were considered ready for use when the TEER value >230 ohm·cm^2. Working stocks of individual test articles were prepared at a concentration of 5 μM by diluting 1 mM stocks prepared in DMSO into 10 mM HEPES. Prior to conducting the assay, Caco-2 plates were washed twice with prewarmed 10 mM HEPES and then equilibrated in 10 mM HEPES for 30 min. at 37° C. Following equilibration, test article flux was tested bidirectionally (in both the apical-to-basolateral and basolateral-to-apical directions) by adding test article working stocks to either the apical or basolateral chambers. Blank 10 mM HEPES was added to the opposite sides. Plates were then incubated at 37° C. for 2 hours. At the end of the incubation, aliquots from both sides of each monolayer were quenched with 4 volumes of ACN containing internal standards. Following a centrifugation step, supernatants were diluted with pure water prior to analysis via LC-MS/MS.
Apparent permeability (Papp, ×10^−6 cm/s) was calculated for all transport assays using the following equation: […]
Where: Papp is apparent permeability (×10^−6 cm/s). • dQ/dt is the rate of drug transport (pmol/s). • A is the surface area of the membrane (cm^2). • D0 is the initial donor concentration (nM; pmol/cm^3).
Efflux ratio was determined by calculating the ratio of the Papp in the basolateral-to-apical direction to the Papp in the apical-to-basolateral direction using the following equation: […]
Where: Papp (B-to-A) is the apparent permeability in the basolateral-to-apical direction. • Papp (A-to-B) is the apparent permeability in the apical-to-basolateral direction.
A general note: Caco-2 cells form a polarised layer with tight junctions and transporters.

Series [3] is described as follows: HLM metabolic stability, predicted human hepatic clearance. The following applies: well-stirred model, 1 μM. It is filed as in vitro ADME. The procedure: Working stocks of individual test articles were prepared at a concentration of 100 μM by diluting 10 mM stocks prepared in DMSO 100-fold (v:v) into ACN. Thawed hepatic microsomes were suspended in 100 mM potassium phosphate buffer, pH 7.4 to a microsomal protein concentration of 0.562 mg/mL. Diluted microsomes were combined with a solution of 10 mM NADPH, and the mixture was pre-warmed to 37° C. for 8 min. Reactions were initiated by addition of the test article working stocks to achieve a final test article concentration of 1 μM. Final microsomal protein and NADPH concentrations were 0.5 mg/mL and 1 mM, respectively. Incubations containing NADPH were run in duplicate. Test article losses mediated by non-CYP mechanisms were evaluated in a parallel set of incubations run in the absence of NADPH. Incubations lacking NADPH consisted of 1 replicate per test article. Following incubation in a 37° C. water bath, aliquots of individual reactions were quenched with cold ACN containing internal standards at […], 15-, 30-, 60-, 90-, and 120-min. Precipitated protein was pelleted via refrigerated centrifugation. Supernatants were diluted into an equal volume of pure water and mixed well prior to analysis via LC-MS/MS. In vitro intrinsic clearances (CLint) in μL/min/mg were determined for each incubation from calculated in vitro half-lives determined using a standard log-linear regression approach. In vitro CLint values were scaled up using the following physiological scaling factors: 40 mg microsomal protein/g human liver and 25.7 g human liver/kg body weight.

The next series deals with PARP2 (Homo sapiens (Human), UniProt Q9UGN5). The series can be described thus: Biochemical fluorescence polarization (FP) assay, PARPi-FL displacement, PARP2. It is filed as binding. The following applies: 20 nM protein, 3 nM PARPi-FL, 4 h. The protocol:
(§1) To characterize our compounds, we utilized an assay measuring the displacement of a commercially available fluorescently labeled PARP 1/2 inhibitor (PARPi-FL, Tocris Biosciences, #6461) as exemplified in assays performed in WO2014/064149 and WO2021/013735A1. The assay was performed utilizing the following method: Compounds were dissolved in DMSO an Echo550 liquid handler was utilized to make serial dilations in the desired concentration range in Optiplate-384F plates. 100% DMSO was used for the high (with protein) and low (without protein) control samples. 20 nL of compound or DMSO alone was added to individual assay plate wells. […] The PARPi-FL was then added at a final concentration of 3 nM. The assay plate is centrifuged at 1000 rpm for 1 min and incubated for 4 h at room temperature. […] XLFit (equation 201) is used to calculate a reported IC50 for each compound.

Another series concerns the target PARP1 (Homo sapiens (Human), UniProt P09874). The series can be described thus: Biochemical fluorescence polarization (FP) assay, PARPi-FL displacement, PARP1. It is filed as binding. The following applies: 20 nM protein, 3 nM PARPi-FL, 4 h. The procedure: as §1
On the technique in general: Fluorescence polarisation rises when a labelled molecule tumbles more slowly, as on binding a larger partner.

Series [4] in a line: In vivo determination of rat Kp,uu. The following applies: male Sprague-Dawley rats, oral gavage, Kp*(fraction unbound in brain homogenate/fraction unbound in plasma). The protocol: The equilibrium dialysis method was used to investigate the in vitro binding of test articles and reference compounds to plasma proteins. Plasma samples containing 5 μM test article or blank dialysis buffer solution (PBS, pH 7.4) were added to separate chambers of the dialysis wells of the High Throughput equilibrium Dialysis (HTD) device. The dialysis plate was sealed and placed in an incubator at 37° C. with 5% CO2 with shaking at approximately 100 rpm for 6 hours. All experiments were performed in duplicable. Ketoconazole (5 μM) was used as the reference compound. After incubation, the seal was removed, and 50 μL of post-dialysis samples were pipetted from both buffer and plasma chambers into fresh 96-well plates. Samples were equimatrilyzed by either addition of blank plasma to buffer samples or the addition of blank buffer to plasma samples. Subsequently, 400 μL (4 volumes) of acetonitrile containing internal were added to all samples to precipitate proteins prior to analysis by UPLC-MS/MS to determine the relative concentrations of test articles. The unbound fractions in plasma were calculated using the concentrations of test articles in buffer and plasma samples according to the following equation: […]
The equilibrium dialysis method was used to investigate the in vitro binding of test articles and reference compounds to rodent brain homogenate. Brains collected from naïve animals were weighed and homogenized in 4 volumes of PBS, pH 7.4. […] The unbound fractions in diluted brain homogenate were calculated using the concentrations of test articles in buffer and homogenate samples according to the following equation: […]
Prior to bioanalysis, plasma and brain samples were extracted with 4 volumes of acetonitrile containing internal standard and centrifuged for 15 minutes. […] Plasma and brain homogenate drug concentrations were determined against calibration curves generated by spiking blank rat plasma or brain homogenate with drug across an appropriate concentration range. […]

The source of these data is patent US20230348473A1, “SUBSTITUTED PYRIDINES AS PARP1 INHIBITORS” (Xinthera, Inc., priority 2022, published 2023).

Chain of PARP2 (Q9UGN5 whole entry): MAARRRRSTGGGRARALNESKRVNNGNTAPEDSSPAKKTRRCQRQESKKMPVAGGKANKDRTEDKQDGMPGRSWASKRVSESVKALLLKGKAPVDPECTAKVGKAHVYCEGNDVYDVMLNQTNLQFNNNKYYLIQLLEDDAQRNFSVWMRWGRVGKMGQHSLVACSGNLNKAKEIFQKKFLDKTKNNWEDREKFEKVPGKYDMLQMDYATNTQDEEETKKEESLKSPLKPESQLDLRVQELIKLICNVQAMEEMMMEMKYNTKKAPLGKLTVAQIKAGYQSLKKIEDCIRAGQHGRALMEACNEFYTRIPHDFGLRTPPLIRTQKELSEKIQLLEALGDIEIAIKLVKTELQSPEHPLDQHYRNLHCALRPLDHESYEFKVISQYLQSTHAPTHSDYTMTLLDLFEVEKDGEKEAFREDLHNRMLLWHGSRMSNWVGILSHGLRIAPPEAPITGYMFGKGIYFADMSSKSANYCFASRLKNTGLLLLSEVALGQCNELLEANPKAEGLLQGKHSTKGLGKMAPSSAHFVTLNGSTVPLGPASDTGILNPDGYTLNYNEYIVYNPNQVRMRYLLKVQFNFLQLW
Chain of PARP1 (P09874 whole entry): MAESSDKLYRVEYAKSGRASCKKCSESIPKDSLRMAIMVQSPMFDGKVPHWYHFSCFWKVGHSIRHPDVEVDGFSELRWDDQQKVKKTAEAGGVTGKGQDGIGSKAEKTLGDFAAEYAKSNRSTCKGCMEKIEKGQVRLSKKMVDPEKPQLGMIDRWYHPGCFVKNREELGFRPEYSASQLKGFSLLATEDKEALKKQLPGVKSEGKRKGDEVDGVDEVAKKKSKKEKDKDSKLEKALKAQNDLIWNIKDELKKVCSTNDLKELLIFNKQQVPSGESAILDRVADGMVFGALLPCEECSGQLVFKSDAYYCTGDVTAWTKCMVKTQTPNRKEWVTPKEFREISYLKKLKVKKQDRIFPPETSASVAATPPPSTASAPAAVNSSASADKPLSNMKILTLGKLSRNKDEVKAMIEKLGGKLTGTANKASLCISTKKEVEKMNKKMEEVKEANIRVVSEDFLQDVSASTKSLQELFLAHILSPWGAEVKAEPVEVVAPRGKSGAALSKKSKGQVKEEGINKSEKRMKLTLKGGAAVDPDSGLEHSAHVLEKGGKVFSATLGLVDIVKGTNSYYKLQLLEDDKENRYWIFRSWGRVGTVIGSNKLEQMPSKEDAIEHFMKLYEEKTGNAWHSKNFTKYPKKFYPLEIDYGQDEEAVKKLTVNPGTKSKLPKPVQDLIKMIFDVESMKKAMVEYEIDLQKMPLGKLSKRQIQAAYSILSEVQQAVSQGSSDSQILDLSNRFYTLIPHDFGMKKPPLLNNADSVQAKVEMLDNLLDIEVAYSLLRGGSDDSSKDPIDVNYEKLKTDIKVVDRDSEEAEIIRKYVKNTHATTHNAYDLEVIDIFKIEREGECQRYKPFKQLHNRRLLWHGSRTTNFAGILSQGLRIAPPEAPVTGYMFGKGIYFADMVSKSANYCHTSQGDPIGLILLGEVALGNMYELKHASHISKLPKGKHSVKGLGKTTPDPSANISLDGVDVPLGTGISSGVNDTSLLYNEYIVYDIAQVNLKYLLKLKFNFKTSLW

`CNC(=O)c1ccc(N2CCN(Cc3ccc4c5c(c(=O)[nH]c4c3)CCO5)CC2)c(C)n1` [Comp. Ex. 1, N,6-dimethyl-5-[4-({4-oxo-2H,3H,5H-furo[3,2-c]quinolin-7-yl}methyl)piperazin-1-yl]pyridine-2-carboxamide]: the “HHEP Clh” value in series [1] is recorded as below 3.3 mL/min/kg. In addition, in series [2], the Papp A→B at 2 h, 5 μM was found to be 2.5 ×10⁻⁶ cm/s and the Papp B→A at 2 h, 5 μM came to 26.2 ×10⁻⁶ cm/s. The “HLM Clh” value in series [3] is below 4 mL/min/kg.
For the compound `CNC(=O)c1ccc(N2CCN(Cc3ccc4c5c(c(=O)[nH]c4c3)CCO5)CC2)c(Cl)n1` [Comp. Ex. 2, 6-chloro-N-methyl-5-[4-({4-oxo-2H,3H,5H-furo[3,2-c]quinolin-7-yl}methyl)piperazin-1-yl]pyridine-2-carboxamide], the “HHEP Clh” value in series [1] is on record as 6.6 mL/min/kg. Besides, in series [2], the Papp A→B at 2 h, 5 μM is 2.4 ×10⁻⁶ cm/s; the Papp B→A at 2 h, 5 μM is 21.9 ×10⁻⁶ cm/s; the efflux ratio at 2 h, 5 μM amounted to 9.3. The “HLM Clh” value in series [3] was 4.2 mL/min/kg.
For `CNC(=O)c1ccc(N2CCN(Cc3cc(F)c4c5c(c(=O)[nH]c4c3)COC5)CC2)c(F)n1` [Comp. Ex. 3, 6-fluoro-5-(4-((9-fluoro-4-oxo-1,3,4,5-tetrahydrofuro[3,4-c]quinolin-7-yl)methyl)piperazin-1-yl)-N-methylpicolinamide] the same measures were 7.1 mL/min/kg, 0.8 ×10⁻⁶ cm/s, 5.5 ×10⁻⁶ cm/s, 7.3 and 7.2 mL/min/kg.
Consider `CNC(=O)c1ccc(N2CCN(Cc3ccc4c5c(c(=O)[nH]c4c3F)CCC5)CC2)c(F)n1` [Comp. Ex. 4], for which the “HHEP Clh” value in series [1] was 14.5 mL/min/kg. Besides, in series [2], the Papp A→B at 2 h, 5 μM is 11.5 ×10⁻⁶ cm/s and the Papp B→A at 2 h, 5 μM is 14.5 ×10⁻⁶ cm/s. The “HLM Clh” value in series [3] is 11.5 mL/min/kg.
For `CNC(=O)c1ccc(N2CCN(Cc3ccc4c([nH]c(=O)c5ccnn54)c3F)CC2)c(F)n1` [Example 1, 6-fluoro-5-[4-({6-fluoro-4-oxo-5H-pyrazolo[1,5-a]quinoxalin-7-yl}methyl)piperazin-1-yl]-N-methylpyridine-2-carboxamide], the IC50 at PARP2 was above 100000 nM; at PARP1, 8.1 nM. For the same compound, the “Rat Kpuu” value in series [4] is on record as 1.0.
Consider `CNC(=O)c1ccc(N2CCN(Cc3ccc4c5c(c(=O)[nH]c4c3F)CCO5)CC2)c(F)n1` [Example 9, 6-fluoro-5-[4-({6-fluoro-4-oxo-2H,3H,5H-furo[3,2-c]quinolin-7-yl}methyl)piperazin-1-yl]-N-methylpyridine-2-carboxamide], for which, in series [1], the “HHEP Clh” value was below 3.3 mL/min/kg. Also, the “Rat Kpuu” value in series [4] was determined as 0.65. Further, in series [2], the Papp A→B at 2 h, 5 μM turned out to be 20.5 ×10⁻⁶ cm/s and the Papp B→A at 2 h, 5 μM worked out at 28.1 ×10⁻⁶ cm/s. Moreover, in series [3], the “HLM Clh” value is recorded as below 4 mL/min/kg.
Take `[2H]C([2H])(c1ccc2c3c(c(=O)[nH]c2c1F)CCO3)N1CCN(c2ccc(C(=O)NC)nc2F)CC1` [Example 24]: the “Rat Kpuu” value in series [4] is 0.81.

One may read the efflux ratio as a quotient of directional permeabilities that is used to spot active efflux. For orientation: IC50 means the concentration needed to halve the response being measured. A high value points to weaker potency in that assay.
